Several values for one entry are separate records, joined by “and”; a condition that tells them apart may be missing. Equal values may be shown once. Read-outs that look alike come from different tables or passages of the source.
Columns and labels:
[1] = test system: acutely dissociated and purified rat OPCs; experiment: Acute OL differentiation assay (MBP expression/cell, immunofluorescent image quantification); format: cell-based; details: Rattus norvegicus
Description: In order to identify compounds with the potential to promote OL differentiation in vivo and thereby enhance remyelination, we first wanted to establish an in vitro assay system that would closely mimic conditions in vivo. To do this, we started by using OPCs acutely isolated from postnatal day 6–7 (P6–7) rat brains by O4 immunopanning. […] OPCs were plated directly onto a biological substrate (PDL/laminin) in 96-well view plates at moderate density to allow for sufficient room to expand processes during differentiation. We plated cells in serum-free medium lacking OPC mitogens (no PDGF or FGF) to allow a basal level of OL differentiation to commence, and as a positive control added thyroid hormone (T3, 40 ng/ml) to accelerate differentiation (Fig. 1, flow scheme).
Fig. 1 Flow scheme of the acute OL differentiation assay. a Purified oligodendrocyte precursor cells (OPCs) were cultured from P7 rat cortex and plated into PDL/laminin pre-coated 96-well plates. b One hour later test compounds were added. c OPC cultures with compound were maintained in culture for an additional 4 days. d On the 5th day with compound, cells were fixed and immunostained with anti-MBP antibodies and DAPI. e Images were acquired with automated fluorescence microscopy and scored phenotypically for OL differentiation (see “Methods” section)
To quantify the extent of OL differentiation occurring in treatment conditions, we measured the overall amount of MBP expression/cell (see “Methods” section). Figure 2a depicts the mask created over MBP staining under which the MBP expression was quantified. […]
All animal work was carried out in strict accordance with the recommendations in the Guide for the Care and Use of Laboratory Animals of the National Institutes of Health. The protocol was approved by the Institutional Use and Care and Use Committee at the Molecular Medicine Research Institute (Sunnyvale, CA). Animals used for OPC isolation in these studies were euthanized by decapitation. OPCs from brains of P6-P7 Sprague–Dawley rat pups (Charles River, Wilmington, MA, USA) were enriched by immunopanning as previously described (Dugas et al. 2006). Briefly, single cell suspensions were obtained from papain-digested neonatal brains and depleted of mature glial cells by successive panning with RAN-2- and GalC-coated plates, followed by enrichment for OPCs using O4-coated plates. OPCs were plated in differentiation media (DMEM, 100 U/ml Penicillin/100 µg/ml streptomycin, 2 mM L-glutamine, 1 mM Na pyruvate, 5 µg/ml insulin, 5 µg/ml N-acetyl-L-cysteine, 1× trace elements B,10 ng/ml d-Biotin, 100 µg/ml BSA, 100 µg/ml apo-transferrin, 16 µg/ml putrescine, 60 ng/ml progesterone, 40 ng/ml sodium selenite 5 ng/ml forskolin, 10 ng/ml CNTF, 1 ng/ml NT-3).
Acutely enriched OPCs were plated in differentiation media at 5000 cells/well into PDL/laminin coated 96-well view plates and centrifuged at 200×g to facilitate cell attachment, survival, and even distribution of OPCs. OPCs were pre-incubated for 1–2 h at 37 °C in 10 % CO2, followed by the addition of test compounds in quadruplicate. Controls were added in eight replicate wells, negative control = 0.1 % DMSO; positive control = 40 ng/ml T3. The day of OPC plating was considered DIV0. On DIV4, cells were fixed, immunostained for myelin basic protein (MBP) expression, imaged and quantified as described below.

expanded OPCs = experiment: cells; details: for viability at 0.1 µM / viability at 1 µM / viability at 10 µM: Rattus norvegicus, 72 h
Description: Having established a consistent assay for measuring OL differentiation in vitro, the next step was to utilize this assay to assess the ability of a wide array of compounds to promote OL differentiation. Prior to library screening, we first established the maximum non-toxic dose of each compound in the library. […] Therefore, we added each compound in the NIH clinical collection (NCC) library to OPCs at 10, 1, and 0.1 µM concentrations. Three days later, we assessed viability of the treated cells by measuring AlamarBlue fluorescence, a measure of cell viability (see “Methods” section). […] Appropriately, we established three sets of screening concentrations for library compounds: non-toxic compounds were tested at 10 and 2 µM, slightly toxic compounds (only toxic at 10 µM) were tested at 2 and 0.4 µM, and very toxic compounds were tested at 0.4 and 0.08 µM.
OPCs were expanded in vitro by seeding into PDL-coated tissue culture flasks at 1000–2000 cells/cm^2 in differentiation media supplemented with 10 ng/ml PDGF-AA. Proliferating OPCs were fed every 2–3 days and supplemented with 2–3× concentration of PDGF as needed to prevent OPC differentiation. After 6–7 days of proliferation, OPCs were harvested by trypsinization, plated into PDL-coated 96-well Falcon plates and centrifuged at 200×g to facilitate cell attachment, survival, and even distribution of cells. Expanded OPCs were seeded in differentiation media at 10,000 cells/well and incubated for 2 h at 37 °C, 10 % CO2 prior to addition of compounds. The NCC library was diluted and added to cells at 10, 1, and 0.1 µM; each concentration was tested in quadruplicate. As a positive control for the induction of toxicity, 5 ng/ml tunicamycin was added to 8 wells in each plate. Three days later, a 1:10 dilution of alamarBlue® (AB) was added to each well and cells were incubated 4 h at 37 °C, 10 % CO2. AB fluorescence was measured using a PerkinElmer Victor II fluorescence microplate reader (PerkinElmer, Waltham, MA) with 560 nm excitation/590 nm emission filters. For library screening, the highest concentration of each compound was adjusted to a minimally toxic concentration based on this toxicity data. Compounds were additionally tested at a second concentration that was 1/5th of the top concentration. The final concentration of DMSO in each well was 0.1 %.

[2] = 2 uM test compound, relative to quetiapine, sheet "All OLga data", read-out: OL differentiation, 2 uM (% Quet)
[3] = 10 uM test compound, relative to quetiapine, sheet "All OLga data", read-out: OL differentiation, 10 uM (% Quet)
[4] = read-out: 0.1 µM (% DMSO), alamarBlue viability of expanded OPCs, compound at 0.1 µM, sheet All Tox data
[5] = read-out: 1 µM (% DMSO), alamarBlue viability of expanded OPCs, compound at 1 µM, sheet All Tox data
[6] = read-out: 10 µM (% DMSO), alamarBlue viability of expanded OPCs, compound at 10 µM, sheet All Tox data
[7] = test compound at 2 uM, NCC library screen, sheet "All OLga data", relative to quetiapine, read-out: 2 uM (% Quet)
[8] = test compound at 10 uM, NCC library screen, sheet "All OLga data", relative to quetiapine, read-out: 10 uM (% Quet)
[9] = alamarBlue viability of expanded OPCs, compound at 0.1 µM, relative to DMSO control
[10] = alamarBlue viability of expanded OPCs, compound at 1 µM, relative to DMSO control
[11] = alamarBlue viability of expanded OPCs, compound at 10 µM, relative to DMSO control

`COc1cc2nc(N(C)CCCNC(=O)C3CCCO3)nc(N)c2cc1OC` (stereo not drawn) [Alfuzosin] gave an activation at 2 µM [1, 2] of -11.1%, an activation at 10 µM [1, 3] of -32.5% and a viability at 0.1 µM (expanded OPCs; [4]) of 90.1%. It also gave a viability at 1 µM (expanded OPCs; [5]) of 89.6% and a viability at 10 µM (expanded OPCs; [6]) of 86.6%.

`CC(C)(C)NC(=O)[C@@H]1CN(Cc2cccnc2)CCN1C[C@@H](O)C[C@@H](Cc1ccccc1)C(=O)N[C@H]1c2ccccc2C[C@H]1O` [Indinavir] showed an activation at 2 µM [1, 2] of 13.4%, an activation at 10 µM [1, 3] of -44.2% and a viability at 0.1 µM (expanded OPCs; [4]) of 105%. The viability at 1 µM (expanded OPCs; [5]) was 91.7% and the viability at 10 µM (expanded OPCs; [6]) was 92.2%.

With `CO[C@H]1/C=C/O[C@@]2(C)Oc3c(C)c(O)c4c(O)c(c(/C=N/N5CCN(C)CC5)c(O)c4c3C2=O)NC(=O)/C(C)=C\C=C\[C@H](C)[C@H](O)[C@@H](C)[C@@H](O)[C@@H](C)[C@H](OC(C)=O)[C@@H]1C` [Rifampicin] the activation at 2 µM [1, 7] was -69.7%, the activation at 10 µM [1, 8] was -188% and the “0.1 µM (% DMSO)” value (expanded OPCs; [9]) was 91.7 % DMSO. For the same compound, the “1 µM (% DMSO)” value (expanded OPCs; [10]) was 85.6 % DMSO and the “10 µM (% DMSO)” value (expanded OPCs; [11]) was 62.3 % DMSO.

For `CC(c1cc2ccccc2s1)N(O)C(N)=O` (stereo not drawn) [Zileuton], the activation at 2 µM [1, 2] was -2.6%, the activation at 10 µM [1, 3] was -52.1% and the viability at 0.1 µM (expanded OPCs; [4]) was 104%. For the same compound, the viability at 1 µM (expanded OPCs; [5]) was 89.4% and the viability at 10 µM (expanded OPCs; [6]) was 77.4%.

`COc1ccc2cc(CCC(C)=O)ccc2c1` [Nabumetone] was tested, and the activation at 2 µM [1, 7] was 5.8%, the activation at 10 µM [1, 8] was 14.1% and the viability at 0.1 µM (expanded OPCs; read-out: 0.1 µM (% DMSO), alamarBlue viability, NCC library compound at 0.1 µM, sheet "All Tox data") was 92%. It also gave a viability at 1 µM (expanded OPCs; read-out: 1 µM (% DMSO), alamarBlue viability, NCC library compound at 1 µM, sheet "All Tox data") of 90.9% and a viability at 10 µM (expanded OPCs; read-out: 10 µM (% DMSO), alamarBlue viability, NCC library compound at 10 µM, sheet "All Tox data") of 94.8%.

`CNCC[C@H](Oc1cccc2ccccc12)c1cccs1` [Duloxetine] showed an activation at 0.08 µM ([1]; read-out: 0.08 uM (% Quet)) of -5.1%, an activation at 0.4 µM ([1]; read-out: 0.4 uM (% Quet)) of -12.9% and an activation at 0.08 µM ([1]; read-out: OL differentiation, 0.08 uM (% Quet)) of 18.3%. The activation at 0.4 µM ([1]; read-out: OL differentiation, 0.4 uM (% Quet)) was -7.6%, the “0.1 µM (% DMSO)” value (expanded OPCs) was 56.7 % DMSO and 82.6 % DMSO and the “1 µM (% DMSO)” value (expanded OPCs) was 45.5 % DMSO. For the same compound, the “10 µM (% DMSO)” value (expanded OPCs) was 12.6 % DMSO, the viability at 1 µM (expanded OPCs; read-out: 1 µM (% DMSO)) was 30.3% and the viability at 10 µM (expanded OPCs; read-out: 10 µM (% DMSO)) was 9.7%.

In the case of `CC(CN1c2ccccc2Sc2ccccc21)N(C)C` (stereo not drawn) [Promethazine], the activation at 0.08 µM ([1]; test compound at 0.08 uM, NCC library screen, sheet "All OLga data", relative to quetiapine, read-out: 0.08 uM (% Quet)) is reported as -26.4%, the activation at 0.4 µM ([1]; test compound at 0.4 uM, NCC library screen, sheet "All OLga data", relative to quetiapine, read-out: 0.4 uM (% Quet)) is reported as -33.6% and the “0.1 µM (% DMSO)” value (expanded OPCs; [9]) is reported as 68.4 % DMSO. The “1 µM (% DMSO)” value (expanded OPCs; [10]) was 33.2 % DMSO and the “10 µM (% DMSO)” value (expanded OPCs; [11]) was 19.9 % DMSO.

From publication PMC5011342, “A high throughput drug screening assay to identify compounds that promote oligodendrocyte differentiation using acutely dissociated and purified oligodendrocyte precursor cells” (BMC Research Notes, 2016)
